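Cultured in 96-well plates, cells were exposed to test compound for 48 hours across five concentrations. Here, GI50 denotes the concentration required for 50% inhibition of growth. Definition used: TGI = concentration required for complete inhibition of growth.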
Columns and labels:
Test in all cases: inhibition of tumour cell growth, NCI panel, 48 h
[1] = tested on: NCI-H460 lung
[2] = tested on: NCI-H23 lung
[3] = tested on: OVCAR-5 ovarian
[4] = tested on: SF-539 CNS
[5] = tested on: RXF 393 renal
[6] = tested on: MOLT-4 leukemia
[7] = tested on: KM12 colon
[8] = tested on: 786-0 renal
[9] = tested on: OVCAR-4 ovarian
[10] = tested on: MALME-3M melanoma

SMILES	TGI [1]	TGI [2]	TGI [3]	TGI [4]	TGI [5]	TGI [6]	TGI [7]	TGI [8]	TGI [9]	TGI [10]	GI50 [1]	GI50 [2]	GI50 [3]	GI50 [4]	GI50 [5]	GI50 [6]	GI50 [7]	GI50 [8]	GI50 [9]	GI50 [10]
CN(C)C(=S)SN(C)C(=O)Nc1ccccc1	> 53.7 µM	> 80.5 µM	> 76 µM	> 81.1 µM	6.31 µM	85.8 µM	53.8 µM	> 74.7 µM	53.5 µM	50.3 µM	–	–	–	–	–	–	–	–	–	–
CCC(C)(O)c1cn(-c2cccc(S(=O)(=O)O)c2)nn1 (stereo not given)	> 100 µM	> 100 µM	> 100 µM	> 100 µM	> 100 µM	> 100 µM	> 100 µM	> 100 µM	> 100 µM	> 100 µM	–	–	–	–	–	–	–	–	–	–
C=C1C(=O)O[C@H]2[C@H]1CC/C(COC(=O)/C=C\C(=O)NCc1ccc(Cn3c(=O)sn(-c4ccc(C#N)cc4)c3=O)cc1)=C\CC[C@@]1(C)O[C@@H]21	1.83 µM	1.81 µM	1.84 µM	1.43 µM	1.22 µM	4.82 µM	1.84 µM	1.52 µM	1.37 µM	1.58 µM	0.844 µM	0.861 µM	0.868 µM	0.753 µM	0.576 µM	0.84 µM	0.9 µM	0.727 µM	0.672 µM	0.83 µM
COc1cc([C@@H]2c3cc4c(cc3C(O[C@@H]3O[C@@H]5CO[C@@H](c6cccs6)OC5[C@H](O)[C@H]3O)C3COC(=O)[C@@H]32)OCO4)cc(OC)c1O (stereo not given in full)	0.278 µM	0.482 µM	5.3 µM	0.199 µM	0.534 µM	0.0284 µM	0.796 µM	0.216 µM	3.95 µM	1.02 µM	< 0.005 µM	0.0288 µM	0.382 µM	0.0268 µM	0.105 µM	< 0.005 µM	0.118 µM	0.0336 µM	0.401 µM	0.0768 µM
NC(N)=NC(N)=Nc1cc2ccccc2c2ccccc12	19.4 µM	29.7 µM	24.3 µM	23.5 µM	24.1 µM	13.7 µM	27.2 µM	22.5 µM	25.9 µM	22.1 µM	5.13 µM	12.3 µM	11 µM	10.6 µM	10.6 µM	2.91 µM	12.3 µM	7.23 µM	10.1 µM	7.16 µM
CCc1cccc(C)c1NC(C)=O	> 100 µM	> 100 µM	> 100 µM	> 100 µM	> 100 µM	> 100 µM	> 100 µM	> 100 µM	> 100 µM	> 100 µM	–	–	–	–	–	–	–	–	–	–
Cc1[nH]c(N=Nc2ccccc2)nc1N=Nc1ccccc1	8.09 µM	> 36.3 µM	> 82.2 µM	6.93 µM	3.43 µM	> 41.7 µM	> 93.2 µM	10.2 µM	55.4 µM	8.06 µM	2.37 µM	3.28 µM	6.62 µM	2.6 µM	0.552 µM	2.32 µM	3.98 µM	2.75 µM	3.06 µM	2.27 µM
CCOC(=O)[C@H]1Nc2ccc(C)cc2C2c3ccccc3CC21 (stereo not given in full)	> 100 µM	> 100 µM	> 100 µM	> 100 µM	> 100 µM	> 100 µM	> 100 µM	> 100 µM	> 100 µM	> 100 µM	–	–	–	–	–	–	–	–	–	–
CC(C)CSc1nc(Nc2ccccc2)c(C#N)c(-c2ccc(F)cc2)n1	12.1 µM	28.7 µM	24 µM	13.3 µM	6.18 µM	> 100 µM	> 100 µM	5.19 µM	1.16 µM	10.6 µM	0.806 µM	6.35 µM	4.03 µM	2.5 µM	1.75 µM	11 µM	48.2 µM	1.9 µM	0.335 µM	2.27 µM
COc1cc(Cn2c(-c3ccccc3)cc3c2-c2oncc2CC3)cc(OC)c1OC	> 100 µM	> 100 µM	> 100 µM	10.3 µM	50.5 µM	> 100 µM	22.8 µM	39.8 µM	> 100 µM	84.4 µM	0.452 µM	2.57 µM	6.46 µM	0.735 µM	1.36 µM	0.976 µM	0.585 µM	1.52 µM	3.12 µM	18.4 µM
Cc1cc(C)cc(Nc2cc(C)nc3nc(C(F)(F)F)nn23)c1	> 100 µM	> 100 µM	> 100 µM	> 100 µM	> 100 µM	> 100 µM	> 100 µM	> 100 µM	> 100 µM	> 100 µM	> 100 µM	> 100 µM	> 100 µM	38.9 µM	24.3 µM	> 100 µM	> 100 µM	37.6 µM	> 100 µM	> 100 µM
COc1ccc(C2CC(=O)c3c(OC)cc(OC)cc3O2)cc1 (stereo not given)	> 100 µM	> 100 µM	> 100 µM	> 100 µM	> 100 µM	> 100 µM	> 100 µM	> 100 µM	> 100 µM	> 100 µM	> 100 µM	> 100 µM	> 100 µM	> 100 µM	> 100 µM	> 100 µM	> 100 µM	> 100 µM	> 100 µM	> 100 µM
CNC=O.[O]=[Ge].[O]=[Ge].[O]=[Ge].[O]=[Ge][OH].[O]=[Ge][OH]	> 100 µM	> 100 µM	> 100 µM	> 100 µM	> 100 µM	> 100 µM	> 100 µM	> 100 µM	> 100 µM	> 100 µM	–	–	–	–	–	–	–	–	–	–
O=c1[nH]c(=O)n(C2CC(O)C(CS)O2)cc1F (stereo not given)	> 100 µM	> 100 µM	> 100 µM	> 90.2 µM	> 100 µM	> 100 µM	> 100 µM	> 100 µM	> 100 µM	> 100 µM	–	–	–	–	–	–	–	–	–	–
O=S(O)CCCCSSCCCCSSCCCCS(=O)O	> 100 µM	> 100 µM	> 100 µM	> 100 µM	> 100 µM	43.9 µM	> 100 µM	> 100 µM	33.9 µM	84.2 µM	–	–	–	–	–	–	–	–	–	–
N#CCCN(CCC#N)c1ccc(C(=O)NN)cc1	> 100 µM	> 100 µM	> 100 µM	> 100 µM	> 100 µM	> 100 µM	> 100 µM	> 100 µM	> 100 µM	> 100 µM	–	–	–	–	–	–	–	–	–	–

Reference: PubChem BioAssay (NCI)
